According to patent US9604997B2, “Peri-carbinols” (ALDEXA THERAPEUTICS, INC., priority 2012, dated 2017):

Key:
[1] = Imine/oxaminal tautomerism of RAL-drug adducts by 1H NMR in CDCl3; format: physicochemical; details: in CDCl3 at 25° C.; for ΔGT, free energy change of tautomerism from imine to oxaminal (ring closed): ΔGT=−RT ln KT
Description: [formula] ΔGT: free energy change of tautomerism from imine to oxaminal. ΔGT=−RT ln KT (4) General Methods.
Preparation of the adducts RAL-1, RAL-2 and RAL-3 of RAL with Compounds 1, 2 and 3. Mixtures of 25.6 mg (0.09 mmol) RAL and 0.11 mmol of either Compound 1 or 2, or Compound 3 (2-[3-amino-6-chloroquinolin-2-yl]propan-2-ol, wherein the carbinol has no peri-interaction), in 1 mL dry benzene were stirred in the dark under argon at room temperature for 1 hr. The mixtures were evaporated to dryness and the residues evaporated twice from 2 mL benzene. The residues were dissolved in 1 mL benzene, allowed to stand 1 hr at room temperature and evaporated to dryness. The residues were evaporated from benzene (3×2 mL), redesolved in 0.5 mL dry benzene, and the solutions loaded on silica gel columns. The columns were first eluted with hexanes, and further eluted with 50:1 (v/v) hexanes-ethyl acetate. The fractions containing the adducts were evaporated to dryness to provide pure RAL-1, RAL-2 and RAL-3. The adducts were dissolved in 0.8 mL dry CDCl3, and the ratio of imine and oxaminal tautomers were determined from their ^1H NMR spectra. The values of KT and ΔGT were calculated according to equations (3) and (4).

[2] = RAL depletion kinetics by drug in rod outer segment preparation; format: biochemical, bovine; details: for Kapp, apparent equilibrium constant of RAL depletion by drug: rod outer segment prep containing 64 μM opsin at 37° C.; for kapp, apparent second order rate constant of RAL depletion by drug / ΔGapp, apparent free energy change of RAL depletion by drug: rod outer segment preparation containing 64 μM opsin at 37° C.; for ΔGapp, apparent free energy change of RAL depletion by drug: ΔGapp=−RT ln Kapp
Source text: The parameters associated with the analysis of RAL depletion kinetics are as follows:
[drawing 47] kapp: apparent second order rate constant of RAL depletion by drug. Kapp: apparent equilibrium constant of RAL depletion by drug.
[formula] ΔGapp: apparent free energy change of RAL depletion by drug. ΔGapp=−RT ln Kapp (2) KT: equilibrium constant of tautomerism from imine (ring opened) to oxaminal (ring closed).
Determination of kapp, Kapp and ΔGapp in rod outer segments. Frozen bovine rod outer segment preparation (64 μM of opsin) was thawed and vortexed thoroughly. A 200 μL aliquot of this sample was transferred into a 0.5 mL Eppendorf tube. To it was added 10 μL of 20 mM drug stock solution in EtOH, and the mixture vortexed for 1 min. The tube was incubated at 37° C. in a Thermo Scientific microprocessor controlled 280 series water bath for 3 min before 5 μL freshly prepared 2.4 mM RAL solution in EtOH was added (the nominal starting concentrations of drug and RAL are 1.00 mM and 60 μM, respectively). After vortexing for 1 min, the tube was incubated at 37° C. and aliquots of the reaction mixture (25 μL each) were taken periodically and added onto 10 mg of solid NaBH4 in a 0.5 mL Eppendorf tube. To the latter was added 400 μL of 2:1 (v/v) EtOH/HOAc. The reduction mixture was vortexed for 1 min and centrifuged. The supernatant was separated, and analyzed by HPLC using a standard HPLC method: • Instrument: HPLC-PE-97 • Column: Waters Sunfire C18 3.5 μm/4.6×100 mm column • Solvent A: 0.05% HCOOH/95% HPLC grade water/5% HPLC grade MeCN • Solvent B: 0.05% HCOOH HPLC grade MeCN • Pump program: 0-3 min 5-100% B, 3-30 min 100% B, 31-32 min 100%-5% B, 32-35 min 5% B • Flow rate: 1 mL/min • Detector wavelengths: 329 and 250 nm • Reference wavelength: 400 nm • Injection volume: 50 μL.
The RAL depletion percentages were calculated by normalization of retinol (ROL) and RAL-drug peak integrals, which were then plotted against reaction time. Least squares fit of the RAL depletion plot according to pseudo-first order kinetics yielded observed first order rate constant kobsd, and kapp is calculated according to kobsd=kapp[drug]. Kapp was calculated from the equilibrium concentrations of free RAL, free drug and RAL-drug according to equation (1). ΔGapp was calculated according to equation (2).

KT, equilibrium constant of tautomerism from imine to oxaminal (ring closed) [1]	ΔGT, free energy change of tautomerism from imine to oxaminal (ring closed) [1]	SMILES	Kapp, apparent equilibrium constant of RAL depletion by drug [2]	kapp, apparent second order rate constant of RAL depletion by drug [2] [M⁻¹ s⁻¹]	ΔGapp, apparent free energy change of RAL depletion by drug [2] [kcal/mol]
>>1000	<<−4 kcal/mol	CC(C)(O)c1c(N)cnc2ccc(Cl)c(F)c12 [Compound 1, 2-(3-amino-6-chloro-5-fluoroquinolin-4-yl)propan-2-ol]	>2 × 10^7	0.8556	<-10
>>1000	<<−4 kcal/mol	CC(C)(O)c1c(N)cnc2ccc(Cl)cc12 [Compound 2, 2-(3-amino-6-chloroquinolin-4-yl)propan-2-ol]	>2 × 10^7	0.5278	<-10
1.3	-0.155 kcal/mol	CC(C)(O)c1nc2ccc(Cl)cc2cc1N [Compound 3, 2-[3-amino-6-chloroquinolin-2-yl]propan-2-ol, reference compound]	1.55 × 10^5	0.9917	-7.4
